Assay [1] concerns ANIT-induced cholestatic liver injury under SIRT1 inhibition. Kind of assay: Effect of SIRT1 inhibition (EX527) on celastrol activity in ANIT model (Example 3). It counts as in vivo, C57BL/6 mice. How it is done:
A total of 24 male C57BL/6 mice were divided into four groups: blank group (n=6); model group (n=6); treatment group (n=6); and EX527 group (n=6).
Celastrol was dissolved in a solvent to obtain a celastrol solution at a concentration of 2 mg/mL, wherein the solvent consisted of 1% DMSO, 2% Tween 80, and 97% water (v:v:v). For intragastrical administration, the dosage of celastrol was 10 mg/kg·d. ANIT was dissolved in corn oil to obtain a corn oil solution of ANIT at a concentration of 15 mg/mL, and the dosage of ANIT for intragastrical administration was 75 mg/kg. EX527 was dissolved in corn oil to obtain a corn oil solution of EX527 at a concentration of 2 mg/mL, and the dosage of EX527 for intraperitoneal injection was 10 mg/kg·d.
The EX527 group was simultaneously administrated with the celastrol solution and the EX527 corn oil solution for 5 consecutive days. The treatment group was administrated with the celastrol solution and an equal dosage of corn oil for 5 consecutive days. At the same time, the blank group and the model group were administrated with equal dosages of solvent (1% DMSO, 2% Tween 80 and 97% water (v:v:v)) and corn oil, and the solvent was administrated for 5 consecutive days.
On the 3rd day of administration, ANIT model was established. 4 Hours after administration, the mice in the model group, the treatment group and the EX527 group were respectively intraperitoneally injected with the ANIT corn oil solution at a dosage of 75 mg/kg for single administration to induce cholestatic liver injury, and the blank group was fed with an equal dosage of corn oil. After the model was established on the 3rd day of administration, the treatment group was continuously administrated with celastrol, the EX527 group was continuously administrated with celastrol and EX527, and the blank group and the model group were continuously administrated with the same dosage of solvent. 48 Hours after administration with ANIT, the mice were sacrificed by CO2 anesthesia, and mouse liver samples and plasma samples were taken. The eyeballs of the mice were taken for blood collection. The plasma samples were placed on ice for 1-2 hours, centrifuged at 4000 g for 5 minutes at 4° C., and the supernatants of the plasma samples were taken to determine plasma biochemical indicators, the levels of ALT, AST and ALP.
At the same time, plasma samples were prepared: 10 μL of plasma sample was taken, mixed well with 190 μL of 67% acetonitrile (containing 5 μM internal standard chlorpropamide), centrifuged at 18000 g for 20 minutes at 4° C., and the supernatant was taken for sample injection. The liquid chromatography conditions were as follows: the injection volume was 5 μL; the temperature of column was 45° C.; the flow rate of mobile phase was 0.3 mL/min; the gradient elution was that acetonitrile concentration changed from 2% to 98% during 16 minutes of operation, wherein the mobile phase (water/acetonitrile solution) contained 0.01% formic acid. The elution procedure was as follows: during 0-12th minute, the acetonitrile concentration changed from 2% to 98% at a constant rate; during 12-14th minute, the acetonitrile concentration was maintained at 98%; during 14-14.1th minute, the acetonitrile concentration changed from 98% to 2%; during 14.1-16th minute, the acetonitrile concentration was maintained at 2%. Mass spectrometry conditions were as follows: the temperature of dry gas was 350° C., the pressure of nebulizer was 35 psi, and the voltage of capillary was 3.5 kV.
Part of the collected mouse liver tissue was fixed overnight in formalin and tissue sections were stained with hematoxylin and eosin (H&E).

For assay [2], the system named is TAA-induced cholestatic liver injury under SIRT1 inhibition. Kind of assay: Effect of SIRT1 inhibition (EX527) on celastrol activity in TAA model (Example 4). It counts as in vivo, C57BL/6 mice. The following applies: TAA model. As for the experimental part: A total of 24 male C57BL/6 mice were divided into four groups: blank group (n=6);
model group (n=6); treatment group (n=6); EX527 group (n=6).
Celastrol was dissolved in a solvent to obtain a solution of celastrol at a concentration of 2 mg/mL, wherein the solvent consisted of 1% DMSO, 2% Tween, and 97% water (v:v:v). For intragastrical administration, the dosage of celastrol was 10 mg/kg·d. TAA was dissolved in 0.9% NaCl solution to prepare a NaCl solution of TAA at a concentration of 60 mg/mL, and the dosage of TAA for intraperitoneal administration was 300 mg/kg. EX527 was dissolved in corn oil to prepare a corn oil solution of EX527 at a concentration of 2 mg/mL, and the dosage of EX527 for intraperitoneal administration was 10 mg/kg. d.
The EX527 group was simultaneously administered with the celastrol solution and the EX527 corn oil solution for 4 consecutive days. The treatment group was administrated with the celastrol solution and an equal dosage of corn oil for 4 consecutive days. At the same time, the blank group and the model group were administrated with equal dosages of solvent (1% DMSO, 2% Tween 80 and 97% water (v:v:v)) and corn oil, and the solvent was administrated for 4 consecutive days.
On the 4th day, the establishment of TAA model was performed. 1 Hour after administration, the mice in the model group, the treatment group and the EX527 group were intraperitoneally injected with TAA at a dosage of 300 mg/kg to induce cholestatic liver injury. 24 Hours after administration with TAA, the mice were sacrificed by CO2 anesthesia, and plasma samples and liver samples were collected. The eyeballs of the mice were taken for blood collection. The plasma samples were placed on ice for 1-2 hours, centrifuged at 4000 g for 5 minutes at 4° C., and the supernatants of plasma samples were taken to determine the plasma biochemical indicators, the levels of ALT, AST, and ALP.
At the same time, plasma samples were prepared: 10 μL of plasma sample was mixed with 190 μL of 67% acetonitrile (containing 5 μM internal standard chlorpropamide), centrifuged at 18000 g for 20 minutes at 4° C., and the supernatant was taken for sample injection. The liquid chromatography conditions were as follows: the volume of injection was 5 μL; the temperature of column was 45° C.; the flow rate of mobile phase was 0.3 mL/min; the gradient elution was that acetonitrile concentration changed from 2% to 98% during 16 minutes of operation, wherein the mobile phase (water/acetonitrile solution) contained 0.01% formic acid. The elution procedure was as follows: during 0-12th minute, the acetonitrile concentration changed from 2% to 98% at a constant rate; during 12-14th minute, the acetonitrile concentration was maintained at 98%; during 14-14.1th minute, the acetonitrile concentration changed from 98% to 2%; during 14.1-16th minute, the acetonitrile concentration was maintained at 2%. Mass spectrometry conditions were as follows: the temperature of dry gas was 350° C., the pressure of nebulizer was 35 psi, and the voltage of capillary was 3.5 kV.
Part of the collected mouse liver tissue was fixed overnight in formalin, and tissue sections were stained with hematoxylin and eosin (H&E).

Where [3] appears, read: EX527 group: celastrol 10 mg/kg·d + EX527 10 mg/kg·d i.p., P<0.05, FIG. 3E.
[4] abbreviates: EX527 group: celastrol 10 mg/kg·d + EX527 10 mg/kg·d i.p., P<0.001, FIG. 4E.

Consider `NC(=O)C1CCCc2c1[nH]c1ccc(Cl)cc21` (centres unmarked) [EX527, reference compound], for which the “Levels of bile acids in plasma vs treatment group” value is “significantly higher” in assay [1] (CA, TβMCA/TαMCA and THDCA/TUDCA, EX527 group: celastrol + EX527 10 mg/kg·d i.p., P<0.05, FIG. 3F); “significantly higher” in assay [2] (DCA, TβMCA/TαMCA, TCA and TDCA, EX527 group: celastrol + EX527 10 mg/kg·d i.p., P<0.05, FIG. 4F). Also, the “H&E staining of mouse liver tissue” value in assay [1] (EX527 group: celastrol 10 mg/kg·d + EX527 10 mg/kg·d i.p., FIG. 3D) is “a severe inflammatory infiltration and a periportal hemorrhage also occurred”; in assay [2] (EX527 group: celastrol 10 mg/kg·d + EX527 10 mg/kg·d i.p., FIG. 4D) it was “a severe necrosis of liver cells also occurred”. In addition, the “ALT level in plasma vs treatment group” value in assay [1] (setting [3]) and in assay [2] (setting [4]) was “significantly higher” in each case. Also, the “AST level in plasma vs treatment group” value in assay [1] (setting [3]) and in assay [2] (setting [4]) was “significantly higher” each time.

These data come from patent US11607417B2, “Uses of celastrol in preventing and/or treating cholestatic liver disease and liver fibrosis” (KUNMING INSTITUTE OF BOTANY, THE CHINESE ACADEMY OF SCIENCES, priority 2017, dated 2023).
